Laboratory results: patent US10844032B2, “Substituted benzofuran, benzothiophene and indole Mcl-1 inhibitors” (Vanderbilt University, priority 2012, dated 2020)
Where two headings read alike, the source gives them in different places.

How the values were obtained:
[1] = tested on: K562; assay: Cellular proliferation, CellTiter-Glo, K562; assay type: cell-based; conditions: Homo sapiens; K562, 10% FBS, 72 hours
Experimental: (§1) To evaluate compound effect on cellular proliferation, cells were plated at 1,000 cells/well in 96-well tissue culture plates in a total volume of 90 uL medium supplemented with 10% FBS (Sigma, Saint Louis, Mo.). 24 hours later, 10 uL of compound (in a 2-fold serial dilution) is added to the cells for a top concentration of 50 uM and a final DMSO concentration <1%. After 72 hours, cell number was measured using the CellTiter-Glo Luminescent assay according to manufacturer's recommendations (Promega, Madison, Wis.). A viability assay in reduced serum was also conducted. Cells were plated at 5,000 cells/well in 96-well plates in a total volume of 100 uL medium supplemented with 10% FBS (Sigma, Saint Louis, Mo.). 24 hours later, the medium was replaced with 90 uL medium containing 1% FBS and the assay conducted as described. IC50 values were determined by plotting growth against compound concentration in a 4-parameter logisitic model in XLFit.

[2] = tested on: NCI-929; assay: Cellular proliferation, CellTiter-Glo, NCI-929; assay type: cell-based; conditions: Homo sapiens; NCI-929, 10% FBS, 72 hours
Experimental: as §1

[3] = tested on: MDA-MB-468; assay: Cellular proliferation, CellTiter-Glo, MDA-MB-468; assay type: cell-based; conditions: Homo sapiens, MDA-MB-468, 72 h, read-out: IC50 on cellular proliferation, MDA-MB-468
Experimental: as §1

[4] = tested on: MDA-MB-231; assay: Cellular proliferation, CellTiter-Glo, MDA-MB-231; assay type: cell-based; conditions: Homo sapiens; MDA-MB-231, 10% FBS, 72 hours
Experimental: as §1

[5] = tested on: K562; assay: Cellular viability in reduced serum, CellTiter-Glo, K562; assay type: cell-based; conditions: Homo sapiens; K562, reduced serum (1% FBS)
Experimental: as §1

[6] = tested on: NCI-929; assay: Cellular viability in reduced serum, CellTiter-Glo, NCI-929; assay type: cell-based; conditions: Homo sapiens; NCI-929, reduced serum (1% FBS)
Experimental: as §1

[7] = tested on: MDA-MB-468; assay: Cellular viability in reduced serum, CellTiter-Glo, MDA-MB-468; assay type: cell-based; conditions: Homo sapiens, MDA-MB-468, read-out: IC50 on cellular viability, MDA-MB-468
Experimental: as §1

[8] = tested on: MDA-MB-231; assay: Cellular viability in reduced serum, CellTiter-Glo, MDA-MB-231; assay type: cell-based; conditions: Homo sapiens; MDA-MB-231, reduced serum (1% FBS)
Experimental: as §1

[9] = molecular target: Bcl-2 (residues 1-207 A96T,G110R, Δ35-91, replaced with Bcl-xL35-50) (Homo sapiens, UniProt P10415, A37E/DEL42-87/G36T/INS34DVEEN/P40E/P88T/P90S/P91E/V35R/V89E); assay: Bak peptide fluorescence polarization anisotropy competition assay, Bcl-2 selectivity; assay type: binding; conditions: Table 3; FITC-Bak peptide 10 nM, Bcl-2 40 nM
Sequence of Bcl-2 (residues 1-207 A96T,G110R, Δ35-91, replaced with Bcl-xL35-50) (P10415 with tags, fused parts or gaps A37E/DEL42-87/G36T/INS34DVEEN/P40E/P88T/P90S/P91E/V35R/V89E): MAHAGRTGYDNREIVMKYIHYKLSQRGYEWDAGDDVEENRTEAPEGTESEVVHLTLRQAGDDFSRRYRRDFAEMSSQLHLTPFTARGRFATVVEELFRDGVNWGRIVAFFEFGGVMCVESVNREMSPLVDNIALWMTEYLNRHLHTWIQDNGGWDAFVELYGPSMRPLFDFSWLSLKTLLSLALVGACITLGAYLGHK
Experimental: (§2) Compound affinity was measured using a fluorescence polarization anisotropy competition assay. Anisotropy measurements were carried out in 384-well, black, flat-bottom plates (Greiner Bio-one, Monroe, N.C., USA).
(§3) Compounds are diluted in DMSO in a 10-point, 3-fold serial dilution scheme. 2.5 uL compound is added to 47.5 uL of assay buffer containing FITC-Bak and protein, for a final DMSO concentration of 5% and a top concentration of 20 uM. […] The plate was mixed and incubated for 90 minutes at room temperature.

[10] = molecular target: Bcl-xL (residues 1-209, loop 45-86 deleted) (Homo sapiens (Human), UniProt Q07817, DEL45-86); assay: Bak peptide fluorescence polarization anisotropy competition assay, Bcl-xL selectivity; assay type: binding; conditions: Table 3; FITC-Bak peptide 10 nM, Bcl-xL 4 nM
Sequence of Bcl-xL (residues 1-209, loop 45-86 deleted) (Q07817 other isoform, or with tags, fused parts or gaps del 45-86): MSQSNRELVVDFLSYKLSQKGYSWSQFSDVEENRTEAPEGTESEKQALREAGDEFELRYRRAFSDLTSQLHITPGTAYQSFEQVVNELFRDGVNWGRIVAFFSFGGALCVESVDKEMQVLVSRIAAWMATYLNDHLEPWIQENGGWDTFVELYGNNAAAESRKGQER
Experimental: as §2, §3

[11] = molecular target: recombinant Mcl-1 (residues 172-327) (Homo sapiens (Human), UniProt Q07820); assay: Bak peptide fluorescence polarization anisotropy competition assay, Mcl-1; assay type: binding; conditions: read-out: Ki for inhibition of Mcl-1
Sequence of recombinant Mcl-1 (residues 172-327) (Q07820 172-327): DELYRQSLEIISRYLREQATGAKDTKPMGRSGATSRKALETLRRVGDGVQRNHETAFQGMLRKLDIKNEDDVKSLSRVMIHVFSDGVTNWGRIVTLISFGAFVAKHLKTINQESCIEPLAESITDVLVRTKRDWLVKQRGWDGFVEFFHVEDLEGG

[12] = Table 2, Ki range, FITC-Bak peptide 10 nM, Mcl-1 14 nM

| Compound | IC50 [1] [µM] | IC50 [3] [µM] | IC50 [4] [µM] | IC50 [5] [µM] | IC50 [7] [µM] | IC50 [8] [µM] | IC50 [2] [µM] | IC50 [6] [µM] | Ki [9] [µM] | further results |
| --- | --- | --- | --- | --- | --- | --- | --- | --- | --- | --- |
| Cc1cc(OCCCc2c(C(=O)O)sc3cc(Cl)ccc23)cc(C)c1Cl [Example 6] |  |  |  |  |  |  |  |  | 0.99 | Ki [10]: 2.4 µM |
| Cc1cc(OCCCc2c(C(=O)NS(=O)(=O)CCNC(=O)c3cccn3C)[nH]c3c(-c4c(CO)nn(C)c4C)cccc23)cc(C)c1Cl [Example 206, 3-(3-(4-chloro-3,5-dimethylphenoxy)propyl)-7-(3-(hydroxymethyl)-1,5-dimethyl-1H-1-pyrazol-4-yl)-N-((2-(1-methyl-1H-pyrrole-2-carboxamido)ethyl)sulfonyl)-1H-indole-2-carboxamide] | > 50 | 50 | > 50 | 10.7 | 26.8 | 18.4 | > 50 | 33.9 |  | Ki [11, 12]: ≤ 0.1 µM |
| O=C(O)c1oc2ccccc2c1CCCOc1cccc2ccccc12 [Example 21, 3-(3-(naphthalen-1-yloxy)propyl)benzofuran-2-carboxylic acid] |  |  |  |  |  |  |  |  | 4.6 |  |
| O=C(O)c1sc2cc(Cl)ccc2c1CCCOc1cccc2ccccc12 [Example 5, 6-chloro-3-(3-(naphthalen-1-yloxy)propyl)benzo[b]thiophene-2-carboxylic acid] |  |  |  |  |  |  |  |  | 1.1 |  |
| Cc1cc(OCCCc2c(C(=O)NS(C)(=O)=O)[nH]c3c(C)c(Cl)ccc23)cc(C)c1Cl [Example 119, 6-chloro-3-(3-(4-chloro-3,5-dimethylphenoxy)propyl)-7-methyl-N-(methylsulfonyl)-1H-indole-2-carboxamide] |  |  |  |  |  |  |  |  |  | Ki [11]: 0.101 to 0.299 µM |
| Cc1cc(OCCCc2c(C(=O)NS(=O)(=O)CCNC(=O)c3cc(F)cc(F)n3)[nH]c3ccccc23)cc(C)c1Cl [Example 191, 3-(3-(4-chloro-3,5-dimethylphenoxy)propyl)-N-((2-(4,6-difluoropicolinamido)ethyl)sulfonyl)-1H-indole-2-carboxamide] |  |  |  |  |  |  |  |  |  | Ki [11]: 1 to 9.99 µM |

Second part, led by results:

| IC50 [1] [µM] | IC50 [3] [µM] | IC50 [4] [µM] | IC50 [5] [µM] | IC50 [7] [µM] | IC50 [8] [µM] | Compound | IC50 [2] [µM] | IC50 [6] [µM] | Ki [9] [µM] | further results |
| --- | --- | --- | --- | --- | --- | --- | --- | --- | --- | --- |
| 17.9 | 13.8 | 16.9 | 2.6 | 11.2 | 12.9 | Cc1cc(OCCCc2c(C(=O)NS(=O)(=O)c3ccccc3)[nH]c3c(-c4cccnc4C)cccc23)cc(C)c1Cl [Example 97, 3-(3-(4-chloro-3,5-dimethylphenoxy)propyl)-7-(2-methylpyridin-3-yl)-N-(phenylsulfonyl)-1H-indole-2-carboxamide] | 23.3 | 5.1 |  |  |
| > 50 | 45.7 | > 50 | 10.1 | 14.8 | 14.2 | Cc1cc(OCCCc2c(C(=O)NS(=O)(=O)CCNC(=O)c3cccn3Cc3ccccc3)[nH]c3c(-c4c(CO)nn(C)c4C)cccc23)cc(C)c1Cl [Example 207, N-((2-(1-benzyl-1H-pyrrole-2-carboxamido)ethyl)sulfonyl)-3-(3-(4-chloro-3,5-dimethylphenoxy)propyl)-7-(3-(hydroxymethyl)-1,5-dimethyl-1H-pyrazol-4-yl)-1H-indole-2-carboxamide] | 30 | 12 |  | Ki [11, 12]: ≤ 0.1 µM |
